Measured values published in US20050148630A1, “Methods of preventing and treating non-opioid induced gastrointestinal dysfunction” (priority 2003, published 2005).

What was measured:
[1] = tested on: subjects with functional constipation; assay: Bowel movement frequency and symptoms by patient self-report diary card, cross-over study; type: in vivo, human
Text: (§1) Subjects underwent measurement of their whole bowel transit (radio-opaque markers) and oral-cecal transit (hydrogen-breath test) prior to receiving the first treatment (baseline) and at the end of each treatment period. During the screening and treatment periods, subjects recorded the time of each bowel movement (defecatory frequency), an assessment of each stool's consistency (using the Bristol Stool Form Scale), and an overall rating of their satisfaction with their bowel movements over each period (1-5 scale: 1=much worse than usual, 2=worse than usual, 3=no change, 4=better than usual, 5=much better than usual). Stool output per 7-day period was calculated from the weight of all stools collected during each treatment period (stools collected over the 7-day assessment period).
Each treatment period comprised seven days of dosing (oral alvimopan 3 mg or matching placebo, given at 8:00 AM and 8:00 PM). For each defecation, subjects recorded the time, date, and stool form (Bristol Stool Form Criteria) (Heaton, et al., Gut, 1991, 73-79). Subjects rated their overall satisfaction with their bowel movements for the treatment period on Day 7.
For Day 1 of each treatment period, the following procedures were conducted in the clinic prior to the morning dosing: a urine drug screen, and a urine/serum pregnancy test (when applicable), semi-supine (i.e., 45-degree angle, pillow, etc.) blood pressure and pulse rate measurements and recording of baseline signs and symptoms. All subjects received their first dose of alvimopan 3 mg or placebo after a light breakfast in the clinic at approximately 8 AM in the morning and according to the randomization schedule. Each dose of alvimopan or placebo was taken with 240 ml of still room-temperature water at each dosing occasion. Subjects were then dispensed the study drug to be taken until the evening dose on Day 5, as well as the Stizmark capsules containing the radio-opaque markers and discharged. Subjects were admitted to the study unit on the evening of Day 5 until completion of the transit studies on Day 7. They were asked to complete a medication diary with the times of morning and evening dosing as an outpatient, as well as any symptoms they experienced at home. Subjects collected all stools from Days 1 to 7. Subjects recorded the time, date, and stool form (Bristol Stool Form Criteria) (Heaton, et al., Gut, 1991, 73-79) for each defecation. Subjects rated their overall satisfaction with their bowel movements for the treatment period on Day 7.
(§2) This single-center, randomized, placebo-controlled, crossover trial was designed to determine the effect of alvimopan on bowel transit of patients with chronic constipation. Whole bowel transit (WBT), bowel movement frequency as total bowel movement (BM), and spontaneous complete BM (SCBM), BM symptoms of straining, discomfort, and satisfaction were compared between placebo and alvimopan (3 mg BID) for 7 days. Safety and tolerability were assessed.
(§3) The following were performed for each test arm: WBT estimated by a weighted sum of retained radio-opaque markers (based on number and location in the colon on single x-ray 48 hours post marker ingestion) and mean colonic transit time (MCTT) calculated by the method of Metcalf et al., Gastroenterology, 1987, 92: 40-47; and bowel movement frequency (BMF) and symptoms by patient self-report diary card.

[2] = tested on: subjects with functional constipation; assay: Whole bowel transit (radio-opaque markers) and mean colonic transit time, placebo-controlled cross-over study; type: in vivo, human; conditions: 3 mg BID for 7 days
Method: A single-center, placebo-controlled, randomized, double-blind, balanced two period cross-over study of the effect of alvimopan on GI transit in subjects with functional constipation was carried out.
Subjects (n=24) meeting the initial screening criteria for functional constipation by history, and who had 3 or fewer stools during a 7-day screening period, were randomly assigned to receive initially either orally-administered alvimopan, 3 mg twice daily for 7 days or matching placebo. Following a two- to four-week washout period, subjects received the opposite treatment for a 7-day period.
as §1
Whole bowel transit was determined by using a modification of the radio-opaque marker method developed by Metcalf et al., Gastroenterology, 1987, 92: 40-47. This method is reproducible and correlates well with scintigraphic methods of measuring colonic transit (Degen, et al., Gut, 1996, 39: 299-305). Subjects ingested, at 8:00 AM on the mornings of Days 3, 4, 5, one capsule containing 24 radio-opaque markers (Sitzmark; Konsyl Pharmaceuticals, Fort Worth, Tex.). Stools from Days 3 to 7 were collected and examined by x-ray for the presence of the radio-opaque markers. […] Weights were assigned to the six locations in the colon and a weighted average of the number of radio-opaque markers in the colon was calculated. […]
This single-center, randomized, placebo-controlled, crossover trial was designed to determine the effect of alvimopan on bowel transit of patients with chronic constipation. […] Safety and tolerability were assessed.
as §3

healthy volunteers = assay: Ascending dose level safety study (Phase I) of alvimopan, TID for 4 days; type: in vivo
Text: This was an ascending dose level safety study (Phase I) intended to determine the frequency and severity of adverse events (AEs) and to estimate the maximum tolerated dose of alvimopan. Subjects were screened to ensure their status as healthy volunteers. They were only enrolled if they had no clinically significant abnormalities on history, physical, or laboratory examinations. Post study physical examination and laboratory tests, including serum chemistries and complete blood count, were performed.
Alvimopan or placebo was administered TID for 4 days.
One subject in each dose group was randomly assigned to receive placebo that was identical in appearance to the active study medication.
Forty-four subjects were randomized for treatment. One subject at each dose level received placebo (N=5); the rest received alvimopan. […] The incidence of gastrointestinal AEs increased with increasing dose of alvimopan. One or more incidence of mild or moderate “abdominal pain” was reported by 83-100% of subjects receiving 18 or 54 mg daily doses (6 or 18 mg TID), but was infrequent at lower doses (range 11-18%). One or more incidence of diarrhea was reported by 83% of subjects receiving 54 mg daily doses (18 mg TID), but was infrequent at lower doses (range 9-22%). One or more incidence of flatulence was reported by 50-78% of subjects receiving 18 or 54 mg daily doses (6 or 18 mg TID), but was less frequent at lower doses (range 18-33%). One subject receiving the highest dose, 54 mg/day (18 mg TID), withdrew during the second day of dosing due to adverse events of abdominal pain, nausea, and diarrhea.

[3] = tested on: subjects with functional constipation; assay: Oral-cecal transit time, lactulose hydrogen breath test, cross-over study; type: in vivo, human; conditions: 3 mg BID, Day 7, lactulose hydrogen breath test
Text: as §1
The transit time for mouth to cecum, a reflection of small bowel transit, was measured utilizing the hydrogen breath test. […] The time between ingestion of lactulose (10 g) and the sustained increase in hydrogen in the breath (hydrogen concentration in end-expiratory breath samples as measured by gas chromatography) represents the oral-cecal transit time (OCTT). […] Breath samples were measured every 15 minutes following ingestion of the lactulose. Transit time was determined by the first time of three consecutive samples in which there was at least a doubling of the baseline breath hydrogen concentration. […]

[4] = tested on: subjects with functional constipation; assay: Safety and tolerability in the cross-over study; type: in vivo, human; conditions: 3 mg BID for 7 days
Text: Subjects were given a physical examination, vital signs, and blood and urine samples obtained for safety laboratory studies at the conclusion of their last treatment period. Any abnormal findings were followed until resolution.
as §2

Solubility in water = type: physicochemical; conditions: except at low or high pH conditions
[5] = 18 or 54 mg daily doses (6 or 18 mg TID)

Question: What does the source list for `C[C@H]1CN(C[C@H](Cc2ccccc2)C(=O)NCC(=O)O)CC[C@@]1(C)c1cccc(O)c1` [alvimopan, [[(2S)-2-[[(3R,4R)-4-(3-hydroxyphenyl)-3,4-dimethylpiperidin-1-yl]methyl]-3-phenylpropanoyl]amino]acetic acid dihydrate]?
Answer: BM consistency compared to placebo ([1]; 3 mg BID for 7 days): improved; BM discomfort compared to placebo ([1]; 3 mg BID for 7 days): improved; BM satisfaction compared to placebo ([1]; 3 mg BID for 7 days): improved; BM straining compared to placebo ([1]; 3 mg BID for 7 days): improved; mean increase above baseline for SCBM ([1]; 3 mg BID over 7 days, placebo 0.3): 0.6; mean increase above baseline for BMF ([1]; 3 mg BID over 7 days, placebo 0.5): 1.0; mean bowel movement Bristol Stool Form Scale score ([1]; FIG. 2, 3 mg BID for 7 days): increased; % of bowel movements with no/mild straining or discomfort ([1]; FIG. 3, 3 mg BID for 7 days): increased; reduction in MCTT versus placebo [2]: 19%; reduction in weighted sum of retained radio-opaque markers (faster whole bowel transit) versus placebo ([2]; p<0.049): 32%; mean colonic transit time (MCTT) ([2]; placebo 69±5): 56 ± 6 h; WBT, weighted sum of retained radio-opaque markers ([2]; placebo 160±17): 109±17 WSM; subjects reporting one or more incidence of diarrhea (healthy volunteers; 54 mg daily doses (18 mg TID)): 83%; subjects withdrawn due to adverse events of abdominal pain, nausea, and diarrhea (healthy volunteers; 54 mg/day (18 mg TID), second day of dosing): One; subjects reporting one or more incidence of flatulence (healthy volunteers; [5]): 50-78%; subjects reporting one or more incidence of mild or moderate abdominal pain (healthy volunteers; [5]): 83-100%; tolerability (healthy volunteers; doses up to 54 mg daily (18 mg TID) for 4 days): generally well tolerated; subjects reporting one or more incidence of diarrhea (healthy volunteers; lower doses): 9-22%; subjects reporting one or more incidence of flatulence (healthy volunteers; lower doses): 18-33%; subjects reporting one or more incidence of mild or moderate abdominal pain (healthy volunteers; lower doses): 11-18%; OCTT v. placebo [3]: not changed; incidence of GI-related adverse effects versus placebo arm [4]: slightly higher; severity of adverse events ([4]; both arms): generally mild; premature discontinuation due to an adverse effect ([4]; either treatment arm): No subjects prematurely discontinued; solubility in water (Solubility in water): low solubility
